For test [1], the system named is ZR-75-1. The test is described as follows: Caspase cascade activation assay (N-(Ac-DEVD)-N'-ethoxycarbonyl-R110 fluorogenic substrate) in ZR-75-1 cells. Type of test: cell-based. Conditions: ZR-75-1 human breast cancer cells, 24 h incubation; for EC50: sigmoidal dose-response, read-out: ZR-75-1 EC50 (nM) (potency). The method, then:
(§1) Human breast cancer cell lines T-47D and ZR-75-1 were grown according to media component mixtures designated by American Type Culture Collection +10% FCS (Invitrogen Corporation), in a 5% CO2−95% humidity incubator at 37° C. T-47D and ZR-75-1 cells were maintained at a cell density between 30 and 80% confluency at a cell density of 0.1 to 0.6×10^6 cells/mL. Cells were harvested at 600×g and resuspended at 0.65×10^6 cells/mL into appropriate media +10% FCS. An aliquot of 45 μL of cells was added to a well of a 96-well microtiter plate containing 5 μL of a 10% DMSO in RPMI-1640 media solution containing 0.16 to 10 μM of 4-(3-bromo-4,5-dimethoxyphenyl)-3-cyano-4H-indolo[4,5-b]pyran (Example 1) or other test compound (0.016 to 1 μM final). An aliquot of 45 μL of cells was added to a well of a 96-well microtiter plate containing 5 μL of a 10% DMSO in RPMI-1640 media solution without test compound as the control sample. The samples were mixed by agitation and then incubated at 37° C. for 24 h in a 5% CO2-95% humidity incubator. After incubation, the samples were removed from the incubator and 50 μL of a solution containing 20 μM of N-(Ac-DEVD)-N′-ethoxycarbonyl-R110 (SEQ ID No.:1) fluorogenic substrate (Cytovia, Inc.; U.S. Pat. No. 6,335,429), 20% sucrose (Sigma), 20 mM DTT (Sigma), 200 mM NaCl (Sigma), 40 mM Na PIPES buffer pH 7.2 (Sigma), and 500 μg/mL lysolecithin (Calbiochem) was added. The samples were mixed by agitation and incubated at room temperature. Using a fluorescent plate reader (Model 1420 Wallac Instruments), an initial reading (T=0) was made approximately 1-2 min after addition of the substrate solution, employing excitation at 485 nm and emission at 530 nm, to determine the background fluorescence of the control sample. After the 3 h incubation, the samples were read for fluorescence as above (T=3 h).
(§2) The Relative Fluorescence Unit values (RFU) were used to calculate the sample readings as follows: RFU(T=3h)−Control RFU(T=0)=Net RFU(T=3h)
(§3) The activity of caspase cascade activation was determined by the ratio of the net RFU value for 4-(3-bromo-4,5-dimethoxyphenyl)-3-cyano-4H-indolo[4,5-b]pyran or other test compound to that of control samples. The EC50 (nM) was determined by a sigmoidal dose-response calculation (Prism 2.0, GraphPad Software Inc.).

Test [2] concerns T-47D. The experiment in a line: Caspase cascade activation assay (N-(Ac-DEVD)-N'-ethoxycarbonyl-R110 fluorogenic substrate) in T-47D cells. Type of test: cell-based. The note with it: T-47D human breast cancer cells, 24 h incubation; ratio of net RFU of compound to control. The method, then:
as §1, §2, §3

As usually defined, the EC50 is the midpoint of the concentration-response curve.

Molecules are shown by their SMILES. Some results are limits rather than exact numbers.

Regarding `COc1cccc(C2=CC(C)(C)Oc3cc(OC)ccc32)c1`, the concentration for a half-maximal effect (EC50) in test [1] was > 10000 nM.
The same measure, in the same setting: the result for `COc1cccc(C2=C(Br)C(C)(C)Oc3cc(OC)ccc32)c1` reads > 10000 nM.
For the compound `COc1ccc(C2c3ccc(N(C)C)cc3OC(OCCCN)C2Br)cc1OC` (stereo not drawn), the EC50 in test [1] is > 10000 nM.
As for `COc1cc(C2CCOc3cc(N(C)C)ccc32)cc(Br)c1OC` (stereo not drawn), the EC50 in test [1] is > 10000 nM.
As for `COc1ccc2c(c1)OC(OCCN)CC2c1cc(OC)c(OC)c(OC)c1` (stereo not drawn), in test [1], the half-maximal effective concentration (EC50) is > 1000 nM.
Turning to `OC1CC(c2cc(Cl)cc(Cl)c2)c2ccc3cnccc3c2O1` (stereo not drawn), the EC50 in test [1] was > 1000 nM.
Regarding `COc1ccc(C2CC(=O)Oc3cc(OC)c(OC)c(OC)c32)cc1` (stereo not drawn), the EC50 in test [1] is > 10000 nM.
For the compound `OC1CC(c2cc(Cl)cc(Cl)c2)c2ccc3[nH]ccc3c2O1` (stereo not drawn), in test [1], the 50% effective concentration (EC50) was > 1000 nM.
For the compound `COc1ccc(C2CC(=O)Oc3cc(OC)c(OC)c(OC)c32)cc1OC` (stereo not drawn), the EC50 in test [1] was > 1000 nM.
For the compound `COc1cc(C2CC(OC)Oc3cc(N)ccc32)cc(Br)c1OC` (stereo not drawn), the EC50 in test [1] was > 1000 nM.
For `COC1CC(c2cc(Cl)cc(Cl)c2)c2ccc(N)cc2O1` (stereo not drawn), the EC50 in test [1] is > 10000 nM. Besides, the “T-47D Ratio (caspase activity)” value in test [2] worked out at 1.2.
On the same counts, the results for `COc1ccc(C2CC(=O)Oc3c2cc(OC)c(OC)c3OC)cc1` (stereo not drawn) are 2650 nM and 5.7.
In the case of `CC(=O)Nc1ccc2c(c1)OC(O)CC2c1cc(Cl)cc(Cl)c1` (stereo not drawn), the EC50 in test [1] was > 10000 nM.
Take `COc1cc(C2C(C#N)=COc3c2ccc2[nH]ccc32)cc(Br)c1OC` (stereo not drawn) [Example 1, 4-(3-Bromo-4,5-dimethoxyphenyl)-3-cyano-4H-indolo[4,5-b]pyran]: the EC50 in test [1] was determined as 32 nM. Moreover, the “T-47D Ratio (caspase activity)” value in test [2] was 7.3.
With `COc1cc(C2C(C#N)=COc3cc(N(C)C)ccc32)cc(Br)c1OC` (stereo not drawn) [Example 2, 4-(3-Bromo-4,5-dimethoxyphenyl)-3-cyano-7-dimethylamino-4H-chromene], the half-maximal effective concentration (EC50) in test [1] worked out at 30 nM. The “T-47D Ratio (caspase activity)” value in test [2] came out at 5.5.
Turning to `Cn1ccc2c3c(ccc21)C(c1cncc(Br)c1)C(C#N)=CO3` (stereo not drawn) [Example 3, 4-(5-Bromo-pyridin-3-yl)-3-cyano-7-methyl-4H-indolo[4,5-b]pyran], the EC50 in test [1] came to 3 nM. For the same compound, in test [2], the “T-47D Ratio (caspase activity)” value turned out to be 5.1.
Regarding `COc1cc(C2C(C#N)=COc3c2ccc2c3ccn2C)cc(Br)c1OC` (stereo not drawn) [Example 4, 4-(3-Bromo-4,5-dimethoxyphenyl)-3-cyano-7-methyl-4H-indolo[4,5-b]pyran], in test [1], the EC50 was 2.2 nM. The “T-47D Ratio (caspase activity)” value in test [2] came out at 5.9.
As to `CCn1ccc2c3c(ccc21)C(c1cc(Br)c(OC)c(OC)c1)C(C#N)=CO3` (stereo not drawn) [Example 5, 4-(3-Bromo-4,5-dimethoxyphenyl)-3-cyano-7-ethyl-4H-indolo[4,5-b]pyran], in test [1], the 50% effective concentration (EC50) stood at 18 nM. In test [2], the “T-47D Ratio (caspase activity)” value is listed as 3.6.
`N#CC1=COc2ccccc2C1c1ccccc1` (stereo not drawn) [Example 6, 3-Cyano-4-phenyl-4H-chromene]: the “ZR-75-1 Ratio (caspase activity)” value in test [1] (ratio of net RFU of compound to control) is recorded as “In-active”. In test [1], the EC50 is 2940 nM. The “T-47D Ratio (caspase activity)” value in test [2] was “In-active”.
For the compound `COc1cc(C2C(C#N)=COc3c2ccc2c3oc(=O)n2C)cc(Br)c1OC` (stereo not drawn) [Example 7], the EC50 in test [1] was 14 nM. In addition, the “T-47D Ratio (caspase activity)” value in test [2] is 6.7.
With `COc1ccc2c(c1)OC=C(C#N)C2c1cc(OC)c(OC)c(OC)c1` (stereo not drawn) [Example 8, 3-Cyano-7-methoxy-4-(3,4,5-trimethoxyphenyl)-4H-chromene], the EC50 in test [1] was 210 nM. Moreover, in test [2], the “T-47D Ratio (caspase activity)” value came out at 6.7.
As to `COc1cc(C2=CCOc3cc(N(C)C)ccc32)cc(OC)c1OC` [Example 9, 7-Dimethylamino-4-(3,4,5-trimethoxyphenyl)-2H-chromene], the EC50 in test [1] was found to be 177 nM. Further, the “T-47D Ratio (caspase activity)” value in test [2] is on record as 7.8.
As to `COc1cc(C2=C(Cl)COc3cc(N(C)C)ccc32)cc(OC)c1OC` [Example 10, 3-Chloro-7-dimethylamino-4-(3,4,5-trimethoxyphenyl)-2H-chromene], the EC50 in test [1] is 280 nM. The “T-47D Ratio (caspase activity)” value in test [2] turned out to be 8.2.
Regarding `COc1ccc2c(c1)OCC(C#N)C2c1cc(OC)c(OC)c(OC)c1` (stereo not drawn) [Example 11, 3-Cyano-7-methoxy-4-(3,4,5-trimethoxyphenyl)-chroman], the EC50 in test [1] stood at 101 nM. In test [2], the “T-47D Ratio (caspase activity)” value is 9.6.
Consider `COc1ccc2c(c1)OC(=O)C(C#N)C2c1cc(OC)c(OC)c(OC)c1` (stereo not drawn) [Example 13, 3-Cyano-7-methoxy-2-oxo-4-(3,4,5-trimethoxyphenyl)-chroman], for which the EC50 in test [1] was 67 nM. Also, in test [2], the “T-47D Ratio (caspase activity)” value came out at 4.3.
For the compound `COc1cc(C2c3ccc4[nH]ccc4c3OC(=O)C2C#N)cc(Br)c1OC` (stereo not drawn) [Example 14, 4-(3-Bromo-4,5-dimethoxyphenyl)-3-cyano-2-oxo-pyrrolo[2,3-h]chroman], the half-maximal effective concentration (EC50) in test [1] was found to be 278 nM. Also, in test [2], the “T-47D Ratio (caspase activity)” value is reported as 4.8.
On to `COc1cc(C2CC(O)Oc3cc(N(C)C)ccc32)cc(Br)c1OC` (stereo not drawn) [Example 15, 4-(3-Bromo-4,5-dimethoxyphenyl)-7-dimethylamino-2-hydroxy-chroman], for which the 50% effective concentration (EC50) in test [1] stood at 15 nM. In test [2], the “T-47D Ratio (caspase activity)” value is given as 14.6.
In the case of `COc1cc(C2CC(OC)Oc3cc(N(C)C)ccc32)cc(Br)c1OC` (stereo not drawn) [Example 16, 4-(3-Bromo-4,5-dimethoxyphenyl)-7-dimethylamino-2-methoxy-chroman], the EC50 in test [1] turned out to be 275 nM. Moreover, in test [2], the “T-47D Ratio (caspase activity)” value is reported as 6.8.
For `COc1cc(C2CC(OC(C)=O)Oc3cc(N(C)C)ccc32)cc(Br)c1OC` (stereo not drawn) [Example 17, 2-Acetoxy-4-(3-bromo-4,5-dimethoxyphenyl)-7-dimethylamino-chroman], the 50% effective concentration (EC50) in test [1] came to 29 nM. Moreover, the “T-47D Ratio (caspase activity)” value in test [2] is on record as 5.2.
With `COc1cc(C2CC(O)Oc3c2ccc2c3ccn2C)cc(Br)c1OC` (stereo not drawn) [Example 18, 4-(3-Bromo-4,5-dimethoxyphenyl)-2-hydroxy-7-methyl-pyrrolo[2,3-h]chroman], the EC50 in test [1] is 7.8 nM. Also, the “T-47D Ratio (caspase activity)” value in test [2] came to 6.0.
Turning to `COc1cc(C2CC(OC)Oc3c2ccc2c3ccn2C)cc(Br)c1OC` (stereo not drawn) [Example 19, 4-(3-Bromo-4,5-dimethoxyphenyl)-2-methoxy-7-methyl-pyrrolo[2,3-h]chroman], the EC50 in test [1] worked out at 48 nM. Further, in test [2], the “T-47D Ratio (caspase activity)” value turned out to be 4.5.
For the compound `COc1cc(C2CC(OC(C)=O)Oc3c2ccc2c3ccn2C)cc(Br)c1OC` (stereo not drawn) [Example 20, 2-Acetoxy-4-(3-bromo-4,5-dimethoxyphenyl)-7-methyl-pyrrolo[2,3-h]chroman], the half-maximal effective concentration (EC50) in test [1] is 3 nM. Further, in test [2], the “T-47D Ratio (caspase activity)” value is on record as 4.7.
On the same counts, the results for `COc1cc(C2CC(=O)Oc3c2ccc2c3ccn2C)cc(Br)c1OC` (stereo not drawn) [Example 21, 4-(3-Bromo-4,5-dimethoxyphenyl)-7-methyl-pyrrolo[2,3-h]chroman-2-one] are 127 nM and 6.2.
Regarding `COc1cc(C2CCOc3c2ccc2c3ccn2C)cc(Br)c1OC` (stereo not drawn) [Example 22, 4-(3-Bromo-4,5-dimethoxyphenyl)-7-methyl-pyrrolo[2,3-h]chroman], in test [1], the 50% effective concentration (EC50) is 48 nM. In addition, the “T-47D Ratio (caspase activity)” value in test [2] was 6.5.
With `COc1ccc2c(c1)OC(O)CC2c1cc(OC)c(OC)c(OC)c1` (stereo not drawn) [Example 23, 7-Methoxy-2-hydroxy-4-(3,4,5-trimethoxyphenyl)-chroman], the EC50 in test [1] is 23 nM. The “T-47D Ratio (caspase activity)” value in test [2] turned out to be 6.0.
On the same counts, the results for `COc1cc(C2CC(O)Oc3c2ccc2[nH]ccc32)cc(Br)c1OC` (stereo not drawn) [Example 24, 4-(3-Bromo-4,5-dimethoxyphenyl)-2-hydroxy-pyrrolo[2,3-h]chroman] are 55 nM and 2.5.
On the same counts, the results for `COc1cc(C2CC(O)Oc3c2ccc2c3ccn2C)cc(OC)c1OC` (stereo not drawn) [Example 25, 2-Hydroxy-7-methyl-4-(3,4,5-trimethoxyphenyl)-pyrrolo[2,3-h]chroman] are 4 nM and 10.1.
For `COc1cc(C2CC(O)Oc3c2ccc2cnccc32)cc(Br)c1OC` (stereo not drawn) [Example 26, 4-(3-Bromo-4,5-dimethoxyphenyl)-2-hydroxy-pyrido[3,4-h]chroman], the EC50 in test [1] was > 1000 nM. Besides, the “T-47D Ratio (caspase activity)” value in test [2] is on record as 1.1.

Values taken from US7476741B2, “Substituted 4H-chromens, 2H-chromenes, chromans and analogs as activators of caspases and inducers of apoptosis and the use thereof” (Cytovia, Inc., priority 2002, dated 2009).
